According to patent US20120214862A1, “MODULATION OF FACTOR 7 EXPRESSION” (ISIS Pharmaceuticals, Inc., priority 2009, published 2012):
In the oligonucleotide strings, read from the 5' end, every base follows the letter of its sugar. An asterisk marks phosphorothioate; unmarked linkages are phosphodiester. Other units and linkages are bracketed, terminal groups are in braces. A string of capitals states the bases alone. e = 2'-O-(2-methoxyethyl) (MOE); [5mC] = 5-methylcytosine; d = 2'-deoxy (DNA)

Assays:
Assay type in all cases: cell-based
human Factor 7 mRNA [1] = experiment: Antisense inhibition of human Factor 7 mRNA in HepB3 cells, lipofectin, 50 nM, real-time RT-PCR; settings: HepB3 cells
Method in brief: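 Percent inhibition, untreated cells as reference: derived from RNA collected about 24 hours post-transfection of 4,000-cell wells, with the human RTS 2927 primer probe set and adjustment for total RNA content (RIBOGREEN®).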

human Factor 7 mRNA [2] = experiment: Dose-dependent antisense inhibition of human Factor 7 in HepB3 cells, transfection with lipofectin; settings: lipofectin, HepB3 cells, 16 hours
Method in brief: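 HepB3 cells (4,000/well) lipofectin-transfected with antisense oligonucleotide at 3.125 or 6.25 up to 100 nM for ~16 h. Factor 7 mRNA measured by real-time RT-PCR with primer probe set RTS 2927, adjusted to RIBOGREEN total RNA; expressed as percent inhibition versus untreated control cells.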

human Factor 7 mRNA [3] = experiment: Dose-dependent antisense inhibition of human Factor 7 in HepB3 cells, transfection with electroporation
Experimental: (§1) The gapmers were also transfected via electroporation and their dose-dependent inhibition of human Factor 7 mRNA was measured. Cells were plated at a density of 20,000 cells per well and transfected via electroporation with 3.125 μM, 6.25 μM, 12.5 μM, 25 μM, 50 μM, and 100 μM concentrations of antisense oligonucleotide, as specified in Table 15. After a treatment period of approximately 16 hours, RNA was isolated from the cells and Factor 7 mRNA levels were measured by quantitative real-time PCR. Human Factor 7 primer probe set RTS 2927 was used to measure mRNA levels. Factor 7 mRNA levels were adjusted according to total RNA content, as measured by RIBOGREEN®. Results are presented as percent inhibition of Factor 7, relative to untreated control cells.
as §1, with “Cells were” for “The gapmers were also transfected via electroporation and their dose-dependent inhibition of human Factor 7 mRNA was measured. Cells were”, “in Table 16. After a” for “in Table 15. After a”, “cells and human Factor 7” for “cells and Factor 7”

[4] = gapmers (5-10-5, 3-14-3, 2-13-5 MOE) targeted to nucleobases 4868 to 4899 of SEQ ID NO: 1
[5] = 3.125 μM, 16 hours (Example 7, Table 15)
[6] = 3.125 μM, 16 hours (Example 8, Table 16)
[7] = 6.25 μM, 16 hours (Example 7, Table 15)
[8] = 6.25 μM, 16 hours (Example 8, Table 16)
[9] = 12.5 μM, 16 hours (Example 7, Table 15)
[10] = 12.5 μM, 16 hours (Example 8, Table 16)
[11] = 25 μM, 16 hours (Example 7, Table 15)
[12] = 25 μM, 16 hours (Example 8, Table 16)
[13] = 50 μM, 16 hours (Example 7, Table 15)
[14] = 50 μM, 16 hours (Example 8, Table 16)
[15] = 100 μM, 16 hours (Example 7, Table 15)
[16] = 100 μM, 16 hours (Example 8, Table 16)
[17] = gapmers targeted to nucleobases 15188 to 15211 of SEQ ID NO: 1 (Table 13)

Substance | % Inhibition of human Factor 7 mRNA levels (human Factor 7 mRNA [1]; [4]) [%] | percent inhibition of Factor 7 mRNA, relative to untreated control cells (human Factor 7 mRNA [2]; 3.125 nM) [%] | percent inhibition of Factor 7 mRNA, relative to untreated control cells (human Factor 7 mRNA [2]; 12.5 nM) [%] | percent inhibition of Factor 7 mRNA, relative to untreated control cells (human Factor 7 mRNA [2]; 25 nM) [%] | percent inhibition of Factor 7 mRNA, relative to untreated control cells (human Factor 7 mRNA [2]; 50 nM) [%] | percent inhibition of Factor 7 mRNA, relative to untreated control cells (human Factor 7 mRNA [2]; 100 nM) [%] | percent inhibition of Factor 7 mRNA, relative to untreated control cells (human Factor 7 mRNA [2]) [%] | percent inhibition of Factor 7 mRNA, relative to untreated control cells (human Factor 7 mRNA [3]; [5]) [%] | percent inhibition of Factor 7 mRNA, relative to untreated control cells (human Factor 7 mRNA [3]; [6]) [%] | percent inhibition of Factor 7 mRNA, relative to untreated control cells (human Factor 7 mRNA [3]; [7]) [%] | percent inhibition of Factor 7 mRNA, relative to untreated control cells (human Factor 7 mRNA [3]; [8]) [%] | percent inhibition of Factor 7 mRNA, relative to untreated control cells (human Factor 7 mRNA [3]; [9]) [%] | percent inhibition of Factor 7 mRNA, relative to untreated control cells (human Factor 7 mRNA [3]; [10]) [%] | percent inhibition of Factor 7 mRNA, relative to untreated control cells (human Factor 7 mRNA [3]; [11]) [%] | percent inhibition of Factor 7 mRNA, relative to untreated control cells (human Factor 7 mRNA [3]; [12]) [%] | percent inhibition of Factor 7 mRNA, relative to untreated control cells (human Factor 7 mRNA [3]; [13]) [%] | percent inhibition of Factor 7 mRNA, relative to untreated control cells (human Factor 7 mRNA [3]; [14]) [%] | percent inhibition of Factor 7 mRNA, relative to untreated control cells (human Factor 7 mRNA [3]; [15]) [%] | percent inhibition of Factor 7 mRNA, relative to untreated control cells (human Factor 7 mRNA [3]; [16]) [%] | % Inhibition of human Factor 7 mRNA levels (human Factor 7 mRNA [1]; [17]) [%] | further results
422142 (antisense eG*eA*eG*eT*eT*d[5mC]*dT*dG*d[5mC]*dA*dG*dG*dA*dG*d[5mC]*eG*eG*e[5mC]*e[5mC]*eT) [compound 422142] | 73 | 16 | 51 | 66 | 72 | 68 | 34 | 26 | 34 | 47 | 47 | 63 | 62 | 67 | 67 | 77 | 65 | 78 | 65 |  | 
422086 (antisense eT*eG*e[5mC]*eA*eT*dG*dG*dT*dG*dA*dT*dG*d[5mC]*dT*dT*e[5mC]*eT*eG*eA*eA) [compound 422086] |  | 8 | 46 | 65 | 83 | 90 | 26 | 20 | 25 | 34 | 48 | 44 | 74 | 63 | 82 | 75 | 86 | 84 | 90 | 81 | 
422228 (antisense eT*eG*d[5mC]*dA*dT*dG*dG*dT*dG*dA*dT*dG*d[5mC]*dT*dT*e[5mC]*eT*eG*eA*eA) [compound 422228] |  | 17 | 43 | 60 | 78 | 90 | 25 | 18 |  | 33 |  | 40 |  | 47 |  | 71 |  | 83 |  | 73 | 
422217 (antisense eG*eA*eG*dT*dT*d[5mC]*dT*dG*d[5mC]*dA*dG*dG*dA*dG*d[5mC]*dG*dG*e[5mC]*e[5mC]*eT) [compound 422217] | 75 | 8 | 45 | 63 | 79 | 83 | 18 | 15 |  | 19 |  | 29 |  | 55 |  | 61 |  | 83 |  |  | 
422150 (antisense eG*e[5mC]*eA*dT*dG*dG*dT*dG*dA*dT*dG*d[5mC]*dT*dT*d[5mC]*dT*dG*eA*eA*eT) [compound 422150] |  | 9 | 38 | 59 | 79 | 87 | 23 | 17 | 0 | 20 | 31 | 40 | 53 | 54 | 67 | 68 | 77 | 83 | 86 | 74 | 
422140 (antisense eG*eT*eT*e[5mC]*eT*dG*d[5mC]*dA*dG*dG*dA*dG*d[5mC]*dG*dG*e[5mC]*e[5mC]*eT*eA*eA) [compound 422140] | 74 | 18 | 49 | 64 | 74 | 74 | 35 | 29 |  | 34 |  | 51 |  | 64 |  | 69 |  | 77 |  |  | 
422252 (antisense e[5mC]*eG*d[5mC]*d[5mC]*dG*dG*d[5mC]*dT*d[5mC]*dT*dG*d[5mC]*dT*d[5mC]*dA*eT*e[5mC]*e[5mC]*e[5mC]*e[5mC]) [compound 422252] |  | 18 | 45 | 61 | 77 | 87 | 17 | 23 |  | 12 |  | 26 |  | 38 |  | 58 |  | 80 |  |  | % Inhibition of human Factor 7 mRNA levels (human Factor 7 mRNA [1]; gapmers targeted to nucleobases 13760 to 13789 of SEQ ID NO: 1 (Table 10)): 70%
